Legend:
clinical = type: in vivo, human; details: both sexes, human, in vivo
Procedure: (§1) Various covariates were screened during development of the population pharmacokinetic model, including age, height, weight, body surface area, body mass index, race, gender, smoking status, serum creatinine levels, serum creatinine clearance, total bilirubin levels, cilansetron dose, and concomitant medication usage. Some efficacy and safety parameters were also evaluated in this population analysis using correlation analyses. Efficacy parameters evaluated included overall relief of IBS symptoms (Responder or Non-Responder), intensity of abdominal pain, number of stools and stool consistency, symptoms of abdominal and rectal discomfort (straining, urgency, feeling of incomplete defecation, passage of mucus, bloating, and feeling of abdominal distension), and upper GI symptoms at Visit 5 (vomiting, heartburn, early satiety, postprandial fullness, sensation of prolonged digestion, and nausea). Safety parameters evaluated included the top ten most frequently observed adverse events (constipation, flatulence, nausea, abdominal pain, headache, dyspepsia, infection, gastrointestinal disorders, anorexia, and diarrhea).
(§2) A statistically significant negative correlation was found between exposure (AUC and Cmax at steady state) and some efficacy parameters including change in stool consistency (adjusted for baseline) and the experience of straining. Patients with higher exposure to cilansetron and/or its 4-hydroxy metabolites were more likely to have lower stool consistency scores (a tendency for harder stools) than patients with lower exposure. […] In addition, patients with higher exposure to cilansetron were more likely to experience straining.

[1] = tested on: non-constipated IBS patients; experiment: clinical; type: in vivo, human; details: linear regression
Procedure: as §1, §2

healthy subjects = experiment: Study K.241.5009: esophageal motility; type: in vivo, human; details: mean
Procedure: The effect of cilansetron on esophageal motility was evaluated in a randomized, double-blind, placebo-controlled, 3-way crossover study in 12 male healthy subjects (ITT population), aged 32-62 years. Subjects received placebo, cilansetron 4 mg, or cilansetron 8 mg administered orally TID for 7 days during each of the 3 periods, with a 7-day washout between periods. Before conduct of esophageal distension tests using an intraesophageal balloon, primary esophageal motility was induced by at least 5 wet swallows of 5 mL water and […] manometrically registered. Amplitude and duration of esophageal contractions were measured in 3 channels proximal and distal to the balloon and the velocity of propagation of contractions was […] measured over the 2 inter-channel intervals. […] For velocity of propagation, a slight trend towards […] reduced velocity with increasing cilansetron dose was found in the 7-2 cm interval but not in the 17-7 cm interval, and there was no effects seen on onset in either interval.

[2] = tested on: diarrhea-predominant IBS subjects; experiment: Study S241.3.011: interruption of activities assessment; type: in vivo, human
Description: Studies S24 1.3.OO6, S24 1.3.0 1 1, and S24 1.3.009 used the following efficacy measurements: • The subjects answered the following three questions with “yes” or “no” using a phone diary at the end of each week: • a) During the last week, did you experience adequate relief of your IBS symptoms, such as abdominal pain, abdominal discomfort, abnormal bowel habits? • b) During the last week, did you experience adequate relief of your abdominal pain and/or discomfort? • c) During the last week, did you experience adequate relief of your abnormal bowel habits? • The subjects rated the following symptoms using the phone diary at the end of each day: • abdominal pain/discomfort (five-point scale); • stool consistency (seven-point Bristol Stool Scale); • stool frequency (number of bowel movements each day); • urgency (five-point scale); • straining (yes or no); • feeling of incomplete defecation (yes or no); • bloating or feeling of abdominal distension (five-point scale). • In Studies S241 A006 and S241.3.009, subjects completed the IBS-QOL Survey at Baseline (Day 1) and at the end of treatment. In Study S24 1.3.0 1 1, subjects completed the IBS-QOL Survey at Baseline (Day 1), at the end of the three-month treatment period, and at the end of rerandomized treatment.
Other secondary efficacy parameters for all three studies included: • Responder rate for the weekly diary questions on adequate relief at each month, where a responder for a month (monthly responder) was defined as a subject who answered the weekly question with “yes” at least twice for that month. The responder rate was the percentage of responders within a treatment group. The all-month responder rate for the weekly diary questions on adequate relief was also evaluated, where an all-month responder was defined as a subject who answered the weekly question with “yes” at least twice for each month. The all-month responder rate was the percentage of all-month responders within a treatment group; • Adequate relief rate for the weekly diary questions was calculated for each subject as the number of weekly assessments with adequate relief (“yes”) divided by the total number of weekly assessments; • Percentage of subjects with adequate relief for the weekly diary questions at each week; • Daily diary questions regarding abdominal pain/discomfort (five-point scale), stool consistency (seven-point scale), stool frequency (number of bowel movements each day), straining (yes or no), urgency (five-point scale), feeling of incomplete evacuation (yes or no), and bloating or feeling of abdominal distention (five-point scale); • QOL data assessed by the IBS-QOL questionnaire; and • Question to determine the interruption of activities.

[3] = channel 2 cm, 4 mg TID oral 7 days
[4] = channel 2 cm, 8 mg TID oral 7 days
[5] = channel 7 cm, 4 mg TID oral 7 days
[6] = channel 7 cm, 8 mg TID oral 7 days
[7] = channel 17 cm, 4 mg TID oral 7 days
[8] = channel 17 cm, 8 mg TID oral 7 days
[9] = inter-channel interval 7-2 cm, 4 mg TID oral 7 days
[10] = inter-channel interval 7-2 cm, 8 mg TID oral 7 days
[11] = inter-channel interval 17-7 cm, 4 mg TID oral 7 days
[12] = inter-channel interval 17-7 cm, 8 mg TID oral 7 days

Procedure for cytochrome P450 enzymes: An in vitro study using human hepatic microsomes evaluated the effect of some enzyme inhibitors on the metabolism of cilansetron (100 μM).

Cc1nccn1C[C@H]1CCc2c(c3cccc4c3n2CCC4)C1=O [Cilansetron, (R)-(−)-4,5,6,8,9,10-hexahydro-10-[(2-methyl-1H-imidazol-1-yl)methyl]-11H-pyrido-[3,2,1-jk]-carbazol-11-one]
AUC (clinical): 360 ng·h/mL | Cmax (clinical): 65 ng/mL | Decrease in stool consistency score per 600 ng*h/mL AUC or 100 ng/mL Cmax [1]: 0.5 point | Contraction Force Amplitude, Absolute Values (healthy subjects; [3]): 88.3 mmHg | Contraction Force Amplitude, Change from Placebo (healthy subjects; [3]): −4.2 mmHg | Contraction Force Duration, Absolute Values (healthy subjects; [3]): 4.5 s | Contraction Force Duration, Change from Placebo (healthy subjects; [3]): -0.0 s | Contraction Force Amplitude, Absolute Values (healthy subjects; [4]): 85.5 mmHg | Contraction Force Amplitude, Change from Placebo (healthy subjects; [4]): −7.1 mmHg | Contraction Force Duration, Absolute Values (healthy subjects; [4]): 5.0 s | Contraction Force Duration, Change from Placebo (healthy subjects; [4]): 0.4 s | Contraction Force Amplitude, Absolute Values (healthy subjects; [5]): 84.7 mmHg | Contraction Force Amplitude, Change from Placebo (healthy subjects; [5]): −3.6 mmHg | Contraction Force Duration, Absolute Values (healthy subjects; [5]): 3.7 s | Contraction Force Duration, Change from Placebo (healthy subjects; [5]): -0.5 s | Contraction Force Amplitude, Absolute Values (healthy subjects; [6]): 85.4 mmHg | Contraction Force Amplitude, Change from Placebo (healthy subjects; [6]): −2.8 mmHg | Contraction Force Duration, Absolute Values (healthy subjects; [6]): 4.0 s | Contraction Force Duration, Change from Placebo (healthy subjects; [6]): -0.2 s | Contraction Force Amplitude, Absolute Values (healthy subjects; [7]): 61.5 mmHg | Contraction Force Amplitude, Change from Placebo (healthy subjects; [7]): −5.3 mmHg | Contraction Force Duration, Absolute Values (healthy subjects; [7]): 3.0 s | Contraction Force Duration, Change from Placebo (healthy subjects; [7]): 0.1 s | Contraction Force Amplitude, Absolute Values (healthy subjects; [8]): 59.3 mmHg | Contraction Force Amplitude, Change from Placebo (healthy subjects; [8]): −7.5 mmHg | Contraction Force Duration, Absolute Values (healthy subjects; [8]): 2.9 s | Contraction Force Duration, Change from Placebo (healthy subjects; [8]): -0.0 s | Velocity of Propagation, Onset, Absolute Values (healthy subjects; [9]): 3.7 cm/sec | Velocity of Propagation, Onset, Change from Placebo (healthy subjects; [9]): 0.4 cm/sec | Velocity of Propagation, Peak, Absolute Values (healthy subjects; [9]): 3.6 cm/sec | Velocity of Propagation, Peak, Change from Placebo (healthy subjects; [9]): −0.2 cm/sec | Velocity of Propagation, Onset, Absolute Values (healthy subjects; [10]): 3.5 cm/sec | Velocity of Propagation, Onset, Change from Placebo (healthy subjects; [10]): 0.2 cm/sec | Velocity of Propagation, Peak, Absolute Values (healthy subjects; [10]): 3.3 cm/sec | Velocity of Propagation, Peak, Change from Placebo (healthy subjects; [10]): −0.5 cm/sec | Velocity of Propagation, Onset, Absolute Values (healthy subjects; [11]): 2.3 cm/sec | Velocity of Propagation, Onset, Change from Placebo (healthy subjects; [11]): 0.0 cm/sec | Velocity of Propagation, Peak, Absolute Values (healthy subjects; [11]): 2.8 cm/sec | Velocity of Propagation, Peak, Change from Placebo (healthy subjects; [11]): 0.1 cm/sec | Velocity of Propagation, Onset, Absolute Values (healthy subjects; [12]): 2.3 cm/sec | Velocity of Propagation, Onset, Change from Placebo (healthy subjects; [12]): −0.0 cm/sec | Velocity of Propagation, Peak, Absolute Values (healthy subjects; [12]): 2.7 cm/sec | Velocity of Propagation, Peak, Change from Placebo (healthy subjects; [12]): 0.0 cm/sec | Subjects “not at all or rarely” bothered, rerandomization Endpoint ([2]; C/C): 54% | Subjects “not at all or rarely” bothered, rerandomization Endpoint ([2]; C/P): 37% | Subjects “not at all or rarely” bothered by IBS symptoms ([2]; Endpoint, 3-month period): 46% | Subjects “not at all or rarely” bothered, rerandomization Endpoint ([2]; P/C): 50% | Inhibition of any other cytochrome P450 enzyme activity (cytochrome P450 enzymes): no inhibition
